Tested on: macrophage RAW264.7
Assay: Evaluation of antioxidant capacity with macrophage RAW264.7 biosensor (PMA stimulation, differential pulse voltammetry)
Format: cell-based
Conditions: 0.6% solution in absolute ethanol; 100 ng/mL PMA, 10 min; 0.1 M PBS
Procedure: The electrochemical experiments in 3) can be a differential pulse voltammetry (DPV), and the DPV conditions can be as follows: scanning range: -0.2 to 0.6 V, amplitude: 0.05 V.
The relative antioxidant capacity value in 5) can be calculated by the following equation:
[formula] where RAC is the relative antioxidant capacity value, I0 is the peak current obtained in the presence of 100 ng/mL PMA, Is is the peak current in the presence of the test sample, and I is the peak current in the absence of PMA.
immersing a third biosensor in Tyrode's buffer at 37° C. for 10 min, washing the third biosensor with PBS buffer for 3 times, connecting the third biosensor to a third electrochemical workstation, and conducting an electrochemical experiment of the third biosensor in a solution containing 1.0 mM Fe(CN)6^3−, 1.0 mM Fe(CN)6^4− or 0.1 M PBS, recording the current signal, reading the peak current and marking as I.
In the following examples, the differential pulse voltammetry is selected as the electrochemical experiment method.
Positive control: a first biosensor was immersed in Tyrode's buffer at 37° C. (preparation of Tyrode's solution: 1000 mL Tyrode's solution: NaCl 8.0 g, 10% KCl 2.0 mL (0.2 g), 10% MgSO4.7H2O 2.6 mL (0.26 g), 5% NaH2PO4.2H2O 1.3 mL (0.065 g), NaHCO3 1.0 g, 1 M CaCl2 1.8 mL (0.2 g), glucose 1.0 g), and PMA was then added to a concentration of 100 ng/mL. 10 min later, the first biosensor was washed with PBS buffer for 3 times (phosphate buffered saline) at pH=7.4, and then was connected to the electrochemical workstation. The first biosensor was electrochemically detected in a solution containing 1.0 mM Fe(CN)6^3−, and the current signal was recorded and the peak current was read as I0=84.6 μA.
Blank control: a third biosensor was immersed in Tyrode's buffer at 37° C. […] The […] was electrochemically detected in a solution containing 1.0 mM Fe(CN)6^3−, and the current signal was recorded and the peak current was read as I=21.5 μA. […]
3) Electrochemical experiment: the second biosensor was used for electrochemical experiment in a PBS solution containing 1.0 mM Fe(CN)6^3−. Subsequently, the current signal and the peak current ls1 were recorded and read, respectively. […]
3) Electrochemical experiment: the biosensor IV was used for electrochemical experiment in a solution containing 1.0 mM Fe(CN)6^4−. Subsequently, the current signal was recorded and the peak current Is2 was read, where Is2=24.7 μA. […]
3) Electrochemical experiment: the biosensor was used for electrochemical experiment in a solution containing 0.1 M (mol/L) PBS. Subsequently, the current signal was recorded and the peak current Is3 was read, where Is3=26.5 μA. […]

Structure (SMILES) | peak current Is4 | peak current Is3 | relative antioxidant value (RAC3) | relative antioxidant value (RAC4)
O=C1O[C@H]([C@@H](O)CO)C(O)=C1O [VC, Vitamin C] | 25.3 μA |  |  | 
Cc1c(C)c2c(c(C)c1O)CC[C@@](C)(CCC[C@H](C)CCC[C@H](C)CCCC(C)C)O2 [VE, Vitamin E] |  | 26.5 μA | 92.2% | 94.2%

— patent US11585779B2, “Biosensor and method of using the same for evaluation of antioxidant capacity” (Nanjing Agricultural University, priority 2017, dated 2023)
